Experimental data as given in patent US11279733B2, “Peptide antibiotics” (priority 2017, dated 2022).
≈ marks a conversion by molar mass, not a printed value. Where two headings read alike, the source gives them in different places. Positions of bridges follow the written chain, without caps; N, C: chain ends. Non-standard residues stand in square brackets, D forms with d. Residues, ends and D or L forms follow the SMILES beside them. *: point of attachment. Decanoyl(3R-OH) = CCCCCCC[C@@H](O)CC(=O)*; Octanoyl(3-OH) = CCCCCC(O)CC(=O)*; X13 = CCCCCCCCCC(O)CC(=O)*; dDab = NCC[C@@H](N)C(=O)O; Dab = NCC[C@H](N)C(=O)O; Pentanoyl = CCCCC(=O)*

What was measured:
[1] = test system: K. pneumoniae ATCC BAA-2146, NDM-1 pos; conditions: ATCC BAA-2146
How it was run: (§1)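 Mid-log cultures grown in Mueller Hinton broth at 37° C were tested by 2-fold broth microdilution at 5×10^5 CFU/mL final. Compounds were dissolved in water and tested over a final range of 32 to 0.015 μg/mL.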

K. pneumoniae ATCC 13883 = conditions: ATCC 13883
How it was run: as §1

E. coli ATCC 25922 = conditions: ATCC 25922
How it was run: as §1

P. aeruginosa ATCC 27853 = conditions: ATCC 27853
How it was run: as §1

[2] = test system: P. aeruginosa GN_043, PmxR
How it was run: as §1

[3] = test system: K. pneumoniae ATCC 700603, MDR; conditions: ATCC 700603
How it was run: as §1

A. baumannii ATCC 19606 = conditions: ATCC 19606
How it was run: as §1

in vitro = conditions: human
Method: Cytotoxicity of the synthesised peptides was evaluated by comparison with commercially available colistin (polymyxin E), polymyxin B (Sigma chemical Co., St. Louis, Mo., U.S.A.) and synthetic octapeptin C4 by conducting lactate dehydrogenase (LDH) assay. CC50 values calculated based on curve fitting of dose dependent inhibition of cell growth represented the cytotoxicity of the peptide. Human kidney 2 (HK2) cells were seeded as 2000 cells per well in a 384 well cell culture plate in a final volume of 20 μL in DMEM/F12 medium (Invitrogen #11330057), in which 10% of FBS was added. Cells were incubated for 24 hours at 37° C., 5% CO2 to allow cells to attach to the plates. Similar conditions were employed for HEK293 and HepG2 cytotoxicity assays.
Colistin and polymyxin B were tested from a range of 2 mM to 0.9 μM. 120 μL of the 1 mM stock solutions in water of each synthesised peptide were freeze-dried and processed for LDH assay. After freeze-dry procedure, the compounds were reconstituted into 600 μM solutions using culture media. All tested compounds were diluted from 600 μM to 0.27 μM in 3-fold dilutions. Then 20 μL of each dilution was added into 20 uL of culture medium in quadruplicate to reach the final concentrations. The cells were incubated with the compounds for 24 h at 37° C., 5% CO2. After the incubation, 5 μL of culture medium was added to 50 μL of LDH assay buffer and incubated for 1 h at room temperature. The absorbance was read at 450 nm using Polarstar. The data was then analysed by Prism software. […] Nephrotoxicity Assessment in Human Proximal Tubule Cells.

A. baumannii GN_093 PmxR = conditions: GN 093 PmxR
How it was run: as §1

[4] = test system: K. pneumoniae GN_106, PmxR; conditions: GN 106, PmxR
How it was run: as §1

[5] = test system: S. aureus ATCC 25923, MSSA; conditions: ATCC 25923
How it was run: as §1

[6] = test system: P. aeruginosa GN_105, PmxR; conditions: GN 105, PmxR
How it was run: as §1

[7] = test system: K. pneumoniae GN_102 PmxR; conditions: GN 102 PmxR
How it was run: as §1

Structure (SMILES) | MIC K. pneumoniae ATCC BAA-2146, NDM-1 pos [1] [µg/mL] | MIC K. pneumoniae ATCC 13883 (K. pneumoniae ATCC 13883) [µg/mL] | MIC E. coli ATCC 25922 (E. coli ATCC 25922) [µg/mL] | MIC P. aeruginosa ATCC 27853 (P. aeruginosa ATCC 27853) [µg/mL] | MIC P. aeruginosa GN_043, PmxR [2] [µg/mL] | MIC K. pneumoniae ATCC 700603, MDR [3] [µg/mL] | MIC A. baumannii ATCC 19606 (A. baumannii ATCC 19606) [µg/mL] | CC50 at 24 h (in vitro) [µM] | MIC A. baumannii GN_093 PmxR (A. baumannii GN_093 PmxR) [µg/mL] | MIC P. aeruginosa GN_043, PmxR ([2]; polymyxin-resistant) [µg/mL] | MIC K. pneumoniae GN_106, PmxR [4] [µg/mL] | MIC S. aureus ATCC 25923, MSSA [5] [µg/mL] | MIC P. aeruginosa GN_105, PmxR [6] [µg/mL] | other results
CCCCC(=O)N[C@H](CCN)C(=O)N[C@H]1CCNC(=O)[C@H](CC(C)C)NC(=O)[C@H](CCN)NC(=O)[C@H](CCN)NC(=O)[C@H](CC(C)C)NC(=O)[C@@H](Cc2ccccc2)NC(=O)[C@H](CCN)NC1=O [compound 919, C4CO-D-Dab-cyc[L-Dab-L-Dab-D-Phe-L-Leu-L-Dab-L-Dab-L-Leu]] (Pentanoyl-[dDab][Dab][Dab][dF]L[Dab][Dab]L; lactam 2-C) | 16 (≈ 16.7 µM) | 32 (≈ 33.4 µM) | 32 (≈ 33.4 µM) | 2 (≈ 2.09 µM) | >32 | >32 | 16 (≈ 16.7 µM) | > 300 | – | – | – | – | – | –
CCCCCCC[C@@H](O)CC(=O)N[C@H](CCN)C(=O)N[C@H]1CCNC(=O)[C@H](C)NC(=O)[C@H](CCN)NC(=O)[C@H](CCN)NC(=O)[C@H](CC(C)C)NC(=O)[C@@H](Cc2ccccc2)NC(=O)[C@H](CCN)NC1=O [compound 4943, 3(R)OH-nC9CO-D-Dab-cyc[L-Dab-L-Dab-D-Phe-L-Leu-L-Dab-L-Dab-L-Ala]] ({Decanoyl(3R-OH)}-[dDab][Dab][Dab][dF]L[Dab][Dab]A; lactam 2-C) | 8 (≈ 7.98 µM) | 16 (≈ 16 µM) | 8 (≈ 7.98 µM) | 1 (≈ 0.998 µM) | – | 8 (≈ 7.98 µM) | >32 | > 300 | 32 (≈ 31.9 µM) | 0.5 (≈ 0.499 µM) | 16 (≈ 16 µM) | >32 | 16 (≈ 16 µM) | MIC K. pneumoniae GN_102 PmxR [7]: 8 µg/mL (≈ 7.98 µM)
CCCCCCC[C@@H](O)CC(=O)N[C@H](CCN)C(=O)N[C@H]1CCNC(=O)[C@H](CC(C)C)NC(=O)[C@H](CCN)NC(=O)[C@H](C)NC(=O)[C@H](CC(C)C)NC(=O)[C@@H](Cc2ccccc2)NC(=O)[C@H](CCN)NC1=O [compound 4945, 3(R)OH-nC9CO-D-Dab-cyc[L-Dab-L-Dab-D-Phe-L-Leu-L-Ala-L-Dab-L-Leu]] ({Decanoyl(3R-OH)}-[dDab][Dab][Dab][dF]LA[Dab]L; lactam 2-C) | – | – | – | – | – | – | – | 181 | – | – | – | – | – | MIC, K. pneumoniae ATCC BAA-2146, NDM-1 pos [1]: 8 µg/mL (≈ 7.88 µM); MIC, K. pneumoniae ATCC 13883 (K. pneumoniae ATCC 13883): 16 µg/mL (≈ 15.8 µM); MIC, E. coli ATCC 25922 (E. coli ATCC 25922): 16 µg/mL (≈ 15.8 µM); MIC, A. baumannii Cl Ptyela 10073 4512:2, PmxR (A. baumannii GN_093 PmxR): 32 µg/mL (≈ 31.5 µM); MIC, P. aeruginosa ATCC 27853 (P. aeruginosa ATCC 27853): 4 µg/mL (≈ 3.94 µM); MIC, P. aeruginosa FADDI-PA070, PmxR ([2]; Table 5, polymyxin-resistant): 4 µg/mL (≈ 3.94 µM); MIC, K. pneumoniae ATCC 700603, MDR [3]: 8 µg/mL (≈ 7.88 µM); MIC, K. pneumoniae Cl 138-16347-20362, PmxR [4]: 16 µg/mL (≈ 15.8 µM); MIC, S. Aureus ATCC 25923, MSSA [5]: 32 µg/mL (≈ 31.5 µM); MIC, P. aeruginosa PA9704, PmxR [6]: 8 µg/mL (≈ 7.88 µM); MIC, K. pneumoniae Cl Koprana 10065 0661:1, PmxR [7]: 4 µg/mL (≈ 3.94 µM); MIC, A. baumannii ATCC 19606 (A. baumannii ATCC 19606): 16 µg/mL (≈ 15.8 µM)
CCCCCCC[C@@H](O)CC(=O)N[C@H](CCN)C(=O)N[C@H]1CCNC(=O)[C@H](CC(C)C)NC(=O)[C@H](CCN)NC(=O)[C@H](CCN)NC(=O)[C@H](C)NC(=O)[C@@H](Cc2ccccc2)NC(=O)[C@H](CCN)NC1=O [compound 4946, 3(R)OH-nC9CO-D-Dab-cyc[L-Dab-L-Dab-D-Phe-L-Ala-L-Dab-L-Dab-L-Leu]] ({Decanoyl(3R-OH)}-[dDab][Dab][Dab][dF]A[Dab][Dab]L; lactam 2-C) | 8 (≈ 7.98 µM) | 8 (≈ 7.98 µM) | 16 (≈ 16 µM) | 1 (≈ 0.998 µM) | – | 8 (≈ 7.98 µM) | 16 (≈ 16 µM) | 107 | 16 (≈ 16 µM) | – | 16 (≈ 16 µM) | >32 | 16 (≈ 16 µM) | MIC P. aeruginosa GN_043, PmxR ([2]; P. aeruginosa GN_043, PmxR): 0.5 µg/mL (≈ 0.499 µM); MIC K. pneumoniae GN_102 PmxR [7]: 4 µg/mL (≈ 3.99 µM)
CCCCCCC[C@@H](O)CC(=O)N[C@H](CCN)C(=O)N[C@H]1CCNC(=O)[C@H](Cc2ccccc2)NC(=O)[C@H](CCN)NC(=O)[C@H](CCN)NC(=O)[C@H](CC(C)C)NC(=O)[C@@H](Cc2ccccc2)NC(=O)[C@H](CCN)NC1=O [compound 5004, 3(R)OH-nC9CO-D-Dab-cyc[L-Dab-L-Dab-D-Phe-L-Leu-L-Dab-L-Dab-L-Phe]] ({Decanoyl(3R-OH)}-[dDab][Dab][Dab][dF]L[Dab][Dab]F; lactam 2-C) | 4 (≈ 3.71 µM) | 4 (≈ 3.71 µM) | 8 (≈ 7.42 µM) | 4 (≈ 3.71 µM) | – | 8 (≈ 7.42 µM) | 4 (≈ 3.71 µM) | 23 | – | 2 (≈ 1.85 µM) | – | – | 8 (≈ 7.42 µM) | –
CCCCCCC[C@@H](O)CC(=O)N[C@H](CCN)C(=O)N[C@H]1CCNC(=O)[C@H](Cc2ccccc2)NC(=O)[C@H](CCN)NC(=O)[C@H](CCN)NC(=O)[C@H](Cc2ccccc2)NC(=O)[C@@H](Cc2ccccc2)NC(=O)[C@H](CCN)NC1=O [compound 5005, 3(R)OH-nC9CO-D-Dab-cyc[L-Dab-L-Dab-D-Phe-L-Phe-L-Dab-L-Dab-L-Phe]] ({Decanoyl(3R-OH)}-[dDab][Dab][Dab][dF]F[Dab][Dab]F; lactam 2-C) | 8 (≈ 7.19 µM) | 4 (≈ 3.6 µM) | 8 (≈ 7.19 µM) | 2 (≈ 1.8 µM) | – | 8 (≈ 7.19 µM) | >32 | 54 | – | 2 (≈ 1.8 µM) | – | – | – | –
CCCCCC(O)CC(=O)N[C@H](CCN)C(=O)N[C@H]1CCNC(=O)[C@H](CC(C)C)NC(=O)[C@H](CCN)NC(=O)[C@H](CCN)NC(=O)[C@H](CC(C)C)NC(=O)[C@@H](Cc2ccccc2)NC(=O)[C@H](CCN)NC1=O (stereo partly drawn) [compound 5012, 3OH-nC7CO-D-Dab-cyc[L-Dab-L-Dab-D-Phe-L-Leu-L-Dab-L-Dab-L-Leu]] ({Octanoyl(3-OH)}-[dDab][Dab][Dab][dF]L[Dab][Dab]L; lactam 2-C) | 32 (≈ 31.5 µM) | 8 (≈ 7.87 µM) | 32 (≈ 31.5 µM) | 4 (≈ 3.94 µM) | 4 (≈ 3.94 µM) | 16 (≈ 15.7 µM) | >32 | 130 | >32 | – | >32 | >32 | 4 (≈ 3.94 µM) | –
CCCCCCCCCC(O)CC(=O)N[C@H](CCN)C(=O)N[C@H]1CCNC(=O)[C@H](CC(C)C)NC(=O)[C@H](CCN)NC(=O)[C@H](CCN)NC(=O)[C@H](CC(C)C)NC(=O)[C@@H](Cc2ccccc2)NC(=O)[C@H](CCN)NC1=O (stereo partly drawn) [compound 5014, 3OH-nC11CO-D-Dab-cyc[L-Dab-L-Dab-D-Phe-L-Leu-L-Dab-L-Dab-L-Leu]] (X13-[dDab][Dab][Dab][dF]L[Dab][Dab]L; lactam 2-C) | 16 (≈ 14.9 µM) | 4 (≈ 3.73 µM) | 2 (≈ 1.86 µM) | 4 (≈ 3.73 µM) | 4 (≈ 3.73 µM) | 8 (≈ 7.46 µM) | 8 (≈ 7.46 µM) | 19 | – | – | – | 4 (≈ 3.73 µM) | 32 (≈ 29.8 µM) | –
